The conditions of series [1]: compared to calcium carbonate; cited from earlier work.
Series [2] is described as follows: Tablet hardness (Krämer UTS4 1, force needed to break a tablet axially). Type of series: physicochemical. The settings on record: tablets of example 2 with the named calcium salt, Prosolv SMCC90 binder; in words. The procedure: For compressing the tablets, a single punch press (Korsch XP-1, available at Korsch, Berlin) was used.
Tablet hardness was then measured using a Krämer UTS4 1 apparatus.
Said four tablet mixtures were compressed into tablets, similar to example 2. Tablet hardness was then measured.
Tablet hardness was measured as described in USP <1217> and EP<2.9.8.> with a Krämer UTS4 1 tester (Kraemer Elektronik GmbH, Darmstadt, Germany). The inventors measured the force needed to break a tablet axially. Presented are the average values of 10 measurements.

Here are results for two molecules from patent US20220304953A1, “PHARMACEUTICAL DOSAGE FORM COMPRISING METFORMIN AND CALCIUM CITRATE” (DSM IP ASSETS B.V., priority 2019, published 2022).

`O=C([O-])CC(O)(CC(=O)[O-])C(=O)[O-].O=C([O-])CC(O)(CC(=O)[O-])C(=O)[O-].[Ca+2].[Ca+2].[Ca+2]` [calcium citrate]: the bioavailability result in series [1] is listed as “superior bioavailability than calcium carbonate”.

In the case of anhydrous calcium citrate, in series [2], the “tablet hardness (compression profiles, FIG. 1)” value is given as “a lot worse”.
